Results as given in a melting point compilation (Tetko et al.; mined from patent text by program, amines drawn as free bases though some values may be those of a salt).

melting point	SMILES
272 to 273 °C	O=S1(=O)N=C(NC2CC2)Nc2cc(Cl)sc21
158 °C	COc1ccccc1CNc1ccc2cc(Nc3nc(C)cc(C)n3)ccc2n1
131 to 134 °C	CCCCc1cccc2c3c([nH]c12)C(CC)(CC(=O)O)CCC3 (configuration not stated)
157 to 160 °C	Cn1c(C(F)(F)F)c([N+](=O)[O-])c2ccc(Cl)cc21
157 to 158 °C	Cc1c(F)c(F)c(C(N)=O)c(F)c1F
226 to 228 °C	COC(=O)C1=C(C)NC2=C(C(=O)OC2)C1c1ccc2c(c1)OCO2 (configuration not stated)
250 °C	Cc1cc2c(c(NC(C(N)=O)c3c(Cl)cccc3Cl)c1)C(=O)CC2 (configuration not stated)
137 to 139 °C	O=C(O)COCCCC1CCCN1c1cnc(-c2ccccc2)c(-c2ccccc2)n1 (configuration not stated)
93 to 95 °C	c1cc(N2CCOCC2)ccn1
51 to 53 °C	CCCCc1nc(C(F)(F)F)c(C(=O)OCC)[nH]1
175 to 184 °C	O=C(O)c1nccnc1N1CCN(CC(O)CO)CC1 (configuration not stated)
359 to 361 °C	O=c1[nH]nc(-c2ccc(-n3ccnc3)cc2)c2cccnc12
173 to 174 °C	COc1ccc(C(C)(C)CCC(=O)O)cc1NC(=O)C[C@H]1O[C@H](c2cccc(OC)c2OC)c2cc(Cl)ccc2N(CC(C)(C)CO)C1=O
183 to 186 °C	N#Cc1ccc(CNC(=O)c2cccc(C#CCn3cncn3)c2)cc1
279 to 281 °C	CSC(=S)NN=Cc1nc(C)[nH]c1C
240 to 243 °C	CCn1cc(C(=O)OCC(=O)O)c(=O)c2cc3c(cc21)OCO3
166 °C	CCC(Cc1cc(C(C)(C)C)c(O)c(C(C)(C)C)c1)(C(=O)OCC1(C)C(C)(C)C=C(O)CC1(C)C)C(=O)OCC1(C)C(C)(C)C=C(O)CC1(C)C (configuration not stated)
97 to 98 °C	COC(=O)c1ccc2sc(C)cc2c1
131 °C	COC(=O)C(=NO)N(C)c1cccc(C(F)(F)F)c1
150 to 151 °C	Cc1ccc(Cn2ccc(OCc3ccccc3)c(Br)c2=O)cc1
68 to 70 °C	CSC(=C[N+](=O)[O-])NCCSCc1ccco1
143 to 148 °C	COC(=O)c1ccccc1C1=NC(C)(C(C)C)C(=O)N1Sc1ccccc1[N+](=O)[O-] (configuration not stated)
81 to 82 °C	CCOCN1C(C)=C(C(=O)OC)[C@H](c2cccc([N+](=O)[O-])c2)C(C(=O)OCOC(=O)C(C)(C)C)=C1C

Continued, compound first:

SMILES	melting point
CCC1(Cc2ccc(O)cc2)NC(=O)NC1=O (configuration not stated)	236 to 238 °C
Cc1c(N2CC[C@H](NC(=O)OC(C)(C)C)C2)c(F)c(N)c2c(=O)c(C(=O)O)cn(C3CC3)c12	135 to 136 °C
Cc1ccc(C[C@H](N)[C@H](O)c2ccc(F)cc2)cc1OC(F)(F)C(F)F (racemic)	112 to 113 °C
CN1CCC(OC2c3cccc(CCc4ccccc4)c3CCn3cc(-c4ccccc4)nc32)CC1 (configuration not stated)	67 °C
COc1cc(OCn2nnc3ccccc32)c(C=O)cc1-c1cccs1	137 to 138 °C
CC(Cn1ncnn1)n1nnc2cc3c(cc2c1=O)OC1COCCN1C3=O (configuration not stated)	188 to 190 °C
CN1CCN(c2cccc3ccc(NC(=O)C(F)(F)F)cc23)CC1	159 to 160 °C
CCc1ccc(S(=O)(=O)NCc2ccccc2-c2ccccc2C(=O)NCCc2ccccc2)cc1	163 °C
COc1ccc2c(c1)sc1nc(CO)cn12	202 to 205 °C
COC(=O)Cc1nc(-c2ccc(Cl)cc2)oc1Oc1cccc([N+](=O)[O-])c1	97 to 99 °C
CC1CC(=O)NN=C1c1ccc(N2CCN(c3ncccn3)CC2)c(N)c1 (configuration not stated)	220 to 221 °C
COC(=O)NC1=NCC(c2ccccc2F)N1C (configuration not stated)	153 to 155 °C
O=c1cc(CCl)nc2sc(-c3ccccc3)nn12	201 to 202 °C
COc1cc(-c2ncc(C(F)(F)F)cc2Cl)ccc1C#N	135 to 137 °C
COc1ccc(C2=NN(Cc3ccc(OCCCCBr)cc3)C(=O)[C@@H]3CC=CC[C@H]23)cc1OC	42 to 46 °C
C=CCOc1ccc(CC(=O)NCC(=O)N[C@@H](Cc2c[nH]cn2)C(=O)OC)cc1Cl	147 to 150 °C
Cc1cc(C(O)(C(F)(F)F)C(F)(F)F)cc(C)c1OCCNCc1ccccc1	117 to 120 °C
CCC1(CO)COC2(CC(c3ccccc3)SC(c3ccccc3)C2)OC1 (configuration not stated)	128 °C
CCCCCCCCCCCCCCCCCCCCCCOC(=O)P(=O)(O)O	92 to 93 °C
CN(CCCNC(=NCCCOc1cccc(CN2CCCCC2)c1)NC#N)CCN(Cc1ccc(F)cc1)c1ccccn1	65 to 68 °C
COC(=O)[C@@H]1C[C@H](NS(=O)(=O)c2ccccc2)C(=O)[C@H]2[C@@]1(C)CC[C@H]1C(=O)O[C@H](c3ccoc3)C[C@]21C	271 to 273 °C
CCOC(=O)C(=O)Nc1c([N+](=O)[O-])cc(Br)c2c1CN(C)C2	153 to 154 °C
COc1ccc(N(C)c2nc(NC(=O)C(C)(C)C)nc3[nH]c4ccccc4c23)cc1	288 to 289 °C
NC(=NO)c1ncn2c1COC(=O)c1c(Cl)cccc1-2	252 to 254 °C
CC(O)CCCCc1ccc(S(N)(=O)=O)s1 (configuration not stated)	75 to 76 °C

SMILES	melting point
O=C(CBr)c1ccc(Br)s1	79 °C
Nc1nc(N)c2c(ccc3c2cc(Cl)n3Cc2ccccc2)n1	285 to 286 °C
COc1ccc(CNc2nnc(OCCCO)c3ccc(Cl)cc23)cc1Cl	124 to 126 °C
Cc1ccc(Oc2ccc(C=O)cc2)c(O)c1	46 to 48 °C
Cn1c(/C=C/CO)c(-c2ccccc2)c2ccccc2c1=O	209 °C
Nc1c(N=Nc2ccc(Cl)cc2)ccc2c(S(N)(=O)=O)cccc12	258 °C
CCOC(=O)c1nc(-c2ccc(Cl)c(OC)c2F)cc(N)c1SC	93 to 94 °C
CC(=O)OC1CSC(Oc2cnccc2-c2c(C)noc2C)C(OC(C)=O)C1OC(C)=O (configuration not stated)	150 to 155 °C
CC1(C2CCC3C4CCC5CC(CC(=O)O)CCC5(C)C4CCC32C)OCCO1 (configuration not stated)	164 to 167 °C
Cn1c(=O)n(CCCC2(C)OCCO2)c(=O)c2c1ncn2Cc1ccccc1	104 to 105 °C
CC(C)C(NC(=O)c1ccc(C(=O)NCCCC(=O)O)cc1)C(=O)N1CCCC1C(=O)NC(C(=O)C(F)(F)F)C(C)C (mixture of isomers)	84 to 86 °C
CCOP(=O)(Cc1ccc(C(=O)O)s1)OCC	77 to 78 °C
CN(C)C1(c2cccc(O)c2)CCC(=O)CC1	175 to 177 °C
CC(=O)Oc1ccc(N2CCC(=O)c3ccccc32)cc1	130 to 132 °C
CCCCCCc1sc(C(N)=O)c2c1-c1nn(C)cc1CC2	194 to 195 °C
CC(=O)OCC(N)C(=O)Nn1cccc1 (configuration not stated)	147 to 148 °C
COc1cc(-c2c(C)noc2C)cc2oc(=O)c(C)c(C)c12	145 to 147 °C
CCOC1=NS(=O)(=O)C(C#N)=C1OCC	147 to 148 °C
COc1cccc(N(CC(=O)OC(C)(C)C)C(=O)CNC(=O)Nc2cccc(C)c2)c1	60 °C
Oc1c(-c2nnn[nH]2)cnc2c(Br)cccc12	> 260 °C
Cc1nn(C)c2nc3ccccc3c(Cl)c12	127 to 129 °C
O=c1c2ccc(Cl)cc2[nH]c2c(O)nn(CC#Cc3ccc(Cl)cc3)c(=O)c12	251 to 252 °C
Cc1ccc(-c2nc(C(F)(F)F)nn2-c2ccc(S(N)(=O)=O)cc2)cc1	245 to 247 °C
O=C(CCCl)NCc1ccc2ccn(C3CCN(CCc4ccc(F)cc4)CC3)c2c1	121 to 122 °C
